Experimental data as given in patent US7214690B2, “Tricyclic quinolinone and tricyclic quinoline androgen receptor modulator compounds and methods” (Ligand Pharmaceuticals Incorporated, priority 2001, dated 2007).

How the values were obtained:
Type in all cases: cell-based
[1] = biological target: T1, PR (Homo sapiens, UniProt P06401); test: co-transfection assay, PR
T1 construct: expressed in transfected cells; host or cells: background cell substantially devoid of endogenous IRs (CV-1 described for the co-transfection assay)
T1 sequence (P06401 1-933): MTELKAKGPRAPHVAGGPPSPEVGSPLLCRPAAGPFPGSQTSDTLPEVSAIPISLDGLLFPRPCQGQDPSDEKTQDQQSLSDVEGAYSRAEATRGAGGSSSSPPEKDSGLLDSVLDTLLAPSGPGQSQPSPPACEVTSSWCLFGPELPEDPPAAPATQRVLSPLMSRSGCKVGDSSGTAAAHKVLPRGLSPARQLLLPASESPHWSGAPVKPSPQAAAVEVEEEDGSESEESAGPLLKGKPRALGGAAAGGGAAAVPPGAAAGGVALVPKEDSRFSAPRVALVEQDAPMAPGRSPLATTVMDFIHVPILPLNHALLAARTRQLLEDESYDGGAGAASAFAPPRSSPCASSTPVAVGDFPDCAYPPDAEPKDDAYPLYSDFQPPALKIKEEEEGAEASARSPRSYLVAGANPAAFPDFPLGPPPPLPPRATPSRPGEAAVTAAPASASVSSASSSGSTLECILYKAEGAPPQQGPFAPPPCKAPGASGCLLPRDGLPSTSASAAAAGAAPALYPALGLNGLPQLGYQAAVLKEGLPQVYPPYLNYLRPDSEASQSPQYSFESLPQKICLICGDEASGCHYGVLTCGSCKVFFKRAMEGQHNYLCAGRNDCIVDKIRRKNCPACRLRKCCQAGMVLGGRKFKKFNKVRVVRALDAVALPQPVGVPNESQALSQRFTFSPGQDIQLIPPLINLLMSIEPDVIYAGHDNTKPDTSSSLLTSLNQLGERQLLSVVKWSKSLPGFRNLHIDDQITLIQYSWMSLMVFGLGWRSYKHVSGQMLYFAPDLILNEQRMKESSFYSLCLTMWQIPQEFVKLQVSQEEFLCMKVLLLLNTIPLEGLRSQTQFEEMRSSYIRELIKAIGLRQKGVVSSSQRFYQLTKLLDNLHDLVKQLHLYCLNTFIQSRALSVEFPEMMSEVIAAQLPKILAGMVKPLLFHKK
Method: (§1) CV-1 cells (African green monkey kidney fibroblasts) were cultured in the presence of Dulbecco's Modified Eagle Medium (DMEM) supplemented with 10% charcoal resin-stripped fetal bovine serum (CH-FBS) then transferred to 96-well microtiter plates one day prior to transfection.
(§2) Three to four replicates were used for each sample.
(§3) After 40 hours, the cells were washed with PBS, lysed with a Triton X-100-based buffer and assayed for LUC and β-Gal activities using a luminometer or spectrophotometer, respectively. For each replicate, the normalized response (NR) was calculated as: LUC response/β-Gal rate • where β-Gal rate=β-Gal/β-Gal incubation time.

[2] = biological target: T2, MR (Homo sapiens, UniProt P08235); test: co-transfection assay, MR
T2 construct: expressed in transfected cells; host or cells: background cell substantially devoid of endogenous IRs (CV-1 described for the co-transfection assay)
T2 sequence (P08235 1-984): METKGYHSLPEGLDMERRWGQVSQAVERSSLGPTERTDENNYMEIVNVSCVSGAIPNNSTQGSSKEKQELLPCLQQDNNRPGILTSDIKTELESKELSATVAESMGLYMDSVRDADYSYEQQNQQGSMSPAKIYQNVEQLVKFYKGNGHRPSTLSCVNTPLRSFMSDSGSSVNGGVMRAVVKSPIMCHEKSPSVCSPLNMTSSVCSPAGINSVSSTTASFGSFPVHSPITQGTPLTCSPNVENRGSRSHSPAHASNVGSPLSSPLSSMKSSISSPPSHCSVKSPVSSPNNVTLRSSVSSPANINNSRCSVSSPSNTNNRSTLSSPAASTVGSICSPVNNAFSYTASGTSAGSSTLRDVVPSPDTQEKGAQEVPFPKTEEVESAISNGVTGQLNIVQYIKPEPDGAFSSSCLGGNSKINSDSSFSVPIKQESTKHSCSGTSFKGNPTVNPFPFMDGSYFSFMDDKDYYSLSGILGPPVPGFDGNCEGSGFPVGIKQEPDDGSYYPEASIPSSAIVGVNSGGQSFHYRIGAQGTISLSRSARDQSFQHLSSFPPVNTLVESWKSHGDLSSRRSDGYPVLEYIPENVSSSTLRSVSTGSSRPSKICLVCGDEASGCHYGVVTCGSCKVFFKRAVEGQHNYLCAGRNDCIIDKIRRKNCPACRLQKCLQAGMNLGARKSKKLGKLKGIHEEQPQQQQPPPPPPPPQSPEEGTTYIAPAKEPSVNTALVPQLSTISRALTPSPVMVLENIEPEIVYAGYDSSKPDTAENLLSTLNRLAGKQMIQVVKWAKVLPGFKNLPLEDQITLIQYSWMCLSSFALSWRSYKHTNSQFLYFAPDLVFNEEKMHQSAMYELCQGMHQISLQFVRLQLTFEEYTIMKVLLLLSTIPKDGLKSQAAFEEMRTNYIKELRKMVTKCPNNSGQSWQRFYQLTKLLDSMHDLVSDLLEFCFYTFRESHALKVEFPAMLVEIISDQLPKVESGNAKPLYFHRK
Method: as §1, §2, §3

[3] = biological target: T3, ER (Homo sapiens, UniProt P03372); test: co-transfection assay, ER
T3 construct: expressed in transfected cells; host or cells: background cell substantially devoid of endogenous IRs (CV-1 described for the co-transfection assay)
T3 sequence (P03372 1-595): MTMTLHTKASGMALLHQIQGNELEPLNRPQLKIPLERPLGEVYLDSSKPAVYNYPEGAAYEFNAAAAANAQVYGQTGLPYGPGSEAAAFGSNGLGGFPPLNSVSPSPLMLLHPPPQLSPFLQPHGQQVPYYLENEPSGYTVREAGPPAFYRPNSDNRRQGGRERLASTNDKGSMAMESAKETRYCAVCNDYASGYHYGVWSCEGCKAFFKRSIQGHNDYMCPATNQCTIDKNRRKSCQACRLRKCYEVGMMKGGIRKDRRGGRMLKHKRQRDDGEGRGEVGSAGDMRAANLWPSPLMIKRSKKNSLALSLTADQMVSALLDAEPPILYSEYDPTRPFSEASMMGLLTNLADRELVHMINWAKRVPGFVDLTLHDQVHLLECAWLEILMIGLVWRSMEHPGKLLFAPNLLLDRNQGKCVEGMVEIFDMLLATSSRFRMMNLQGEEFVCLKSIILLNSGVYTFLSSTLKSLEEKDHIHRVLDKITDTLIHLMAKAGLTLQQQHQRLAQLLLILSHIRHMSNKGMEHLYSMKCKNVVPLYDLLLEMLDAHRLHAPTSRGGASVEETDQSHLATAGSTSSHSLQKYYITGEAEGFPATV
Method: as §1, §2, §3

Row | Compound | EC50 [1] [µM] | IC50 [2] [µM] | EC50 [3] [µM] | IC50 [3] [µM]
1 | CC[C@@H]1COc2c(ccc3[nH]c(=O)cc(C(F)(F)F)c23)N1CC(F)(F)F [Compound 110, (3R)-3-Ethyl-2,3,4,7-tetrahydro-4-(2,2,2-trifluoroethyl)-10-(trifluoromethyl)-8H-[1,4]oxazino[2,3-f]quinolin-8-one] | > 10 | 1.27 | > 10 | > 10
2 | C=CCN1c2ccc3[nH]c(=O)cc(C(F)(F)F)c3c2OC[C@H]1CC [Compound 114, (3R)-4-Allyl-3-ethyl-2,3,4,7-tetrahydro-10-(trifluoromethyl)-8H-[1,4]oxazino[2,3-f]quinolin-8-one] | > 10 | > 10 | > 10 | > 10
3 | CC(C)[C@@H]1COc2c(ccc3[nH]c(=O)cc(C(F)(F)F)c23)N1CC(F)(F)Cl [Compound 124, (3R)-4-(2-Chloro-2,2-difluoroethyl)-2,3,4,7-tetrahydro-3-isopropyl-10-(trifluoromethyl)-8H-[1,4]oxazino[2,3-f]quinolin-8-one] | > 10 | > 10 | > 10 | > 10
